US8236841B2, “Fused heterocycle derivative” (Kyowa Hakko Kirin Co., Ltd., priority 2006, dated 2012)

Key:
[1] = system: rats with chronic constriction nerve injury; assay: Analgesic effect in rats with chronic constriction nerve injury (von Frey filament); assay type: in vivo, rat; details: orally administered, dose of 50 mg/kg or less, one hour after administration, von Frey filaments
Excerpt: Analgesic Effect of Compounds in Rats with Chronic Constriction Nerve Injury
Rats with chronic constriction nerve injury were produced by partially modifying the method of Mosconi and Kruger et al. (Pain, vol. 64, pp. 37-57 (1996)).
Male Crl:CD(SD) rats were used for the experiments. Under pentobarbital anesthesia, the sciatic nerve of the left hind limb of the rat was exfoliated, and the exfoliated region was wrapped with a polyethylene tube (trade name: Intramedic, size: PE-60, manufactured by Becton Dickinson and Company) of 2 mm in length. On days 14 to 21 after the surgery, the rats were placed in an acrylic connected cage with a wire mesh floor (900 mm (length)×210 mm (depth)×140 mm (height)) consisting of 4 cages connected in a row and allowed to acclimate to the environment for at least 20 minutes, and then, the pain was evaluated.
The von Frey filament (trade name: touch test sensory evaluator, Model number: model 58011, manufactured by Muromachi Kikai) was used to evaluate pain, and the results were calculated as a pain threshold. That is, by using a von Frey filament of different stimulus intensity, stimulation was given to the plantar surface of the injured side of rats with chronic constriction nerve injury, and the stimulus intensity to cause paw withdrawal response was obtained. Then, the 50% pain threshold (Paw withdrawal threshold) (g) was calculated by the up down method of Dixon [Annual Review of Pharmacology and Toxicology, vol. 20, pp. 441-462 (1980)].
In the evaluation of the test compound, rats with 50% pain threshold of less than 4 g were used, and the test compound was dissolved in a 0.5% aqueous methyl cellulose solution and orally administered at a dose of 5 mL/kg. One hour after the administration, the pain threshold was measured using von Frey filaments.

human CB2 receptor = target: T1, human CB2 receptor (Homo sapiens, UniProt P34972); assay: GTPγS binding assay via human CB2 receptor; assay type: biochemical; details: membrane of human CB2 receptor stably expressing CHO-K1 cells; for EC50: read-out: EC50 value (agonist activity, [35S]GTPγS binding); for Emax: read-out: Emax value (maximum effect relative to CP55940 set to 100%)
T1 construct: expressed in transfected cells
Procedure: GTPγS binding assay via human CB2 receptor
The assay was performed according to a method of Hillard et al. (The Journal of Pharmacology and Experimental Therapeutics, vol. 289, p. 1427 (1999)). For use as a membrane sample, a membrane fraction was prepared from human CB2 receptor stably expressing CHO-K1 cells (Nature, vol. 365, pp. 61-65 (1993)). The membrane sample (final concentration of 40 μg·protein/mL) together with each test compound and [^35S]GTPγS (manufactured by PerkinElmer, final concentration of 0.05 nmol/L), was incubated at 30° C. for 1 hour in the assay buffer solution (50 mmol/L Tris-HCl buffer solution (pH 7.4), 100 mmol/L NaCl, 1 mmol/L EDTA, 3 mmol/L MgCl2 and 0.1% bovine serum albumin) containing 20 μmol/L guanosine 5′-diphosphate (GDP). Then, the mixture was filtered through a glass filter GF/B (manufactured by Whatman). After the glass filter was washed with the assay buffer solution, the radioactivity on the glass filter was measured using a liquid scintillation counter (TRI-CARB 2700TR, manufactured by Packard). The nonspecific binding amount was defined as a binding amount in the presence of 10 μmol/L GTPγS. The specific binding amount was presented as the difference between the total binding amount and the nonspecific binding amount. The increase rate of the specific binding amount in the presence of the test compound relative to the specific binding amount in the absence of the test compound was defined as agonist activity of the test compound. The concentration which gives 50% of the maximum effect of the test compound (EC50 value) was calculated by nonlinear regression analysis of the concentration-response curve. The percentage of the maximum effect of the test compound (Emax value) was calculated based on the maximum effect of CP55940 (manufactured by Tocris) measured simultaneously set to 100%.

CB2 receptor = target: T2, CB2 receptor (Rattus norvegicus, UniProt Q9QZN9); assay: [3H]CP55940 binding assay, CB2 receptor (rat spleen membrane); details: [3H]CP55940 0.5 nmol/L, 25° C. 1 hour
T2 construct: from tissue; host or cells: rat spleen membranes
T2 sequence (Q9QZN9 1-360): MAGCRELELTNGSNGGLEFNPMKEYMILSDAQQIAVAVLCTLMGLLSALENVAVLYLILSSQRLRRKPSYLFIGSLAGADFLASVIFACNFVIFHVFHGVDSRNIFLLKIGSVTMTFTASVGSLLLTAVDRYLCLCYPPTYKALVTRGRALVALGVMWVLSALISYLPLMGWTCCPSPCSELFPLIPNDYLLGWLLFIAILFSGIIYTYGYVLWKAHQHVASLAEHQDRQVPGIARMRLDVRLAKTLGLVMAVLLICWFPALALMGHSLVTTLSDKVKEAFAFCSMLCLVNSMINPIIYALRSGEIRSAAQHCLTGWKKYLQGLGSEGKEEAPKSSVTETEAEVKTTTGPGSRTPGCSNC
Procedure: Cannabinoid CB1 and CB2 receptor-binding activities
The assay was performed according to a method of Hillard et al. (The Journal of Pharmacology and Experimental Therapeutics, vol. 289, p. 1427 (1999)). A rat forebrain membrane sample was prepared for use in the binding assay for CB1 receptor, and a rat spleen membrane sample was prepared for use in the binding assay for CB2 receptor. Each membrane sample (forebrain: final concentration of 0.5 mg·protein/mL, spleen: final concentration of 2 mg·protein/mL) together with each test compound and [^3H]CP55940 ((−)-cis-3-[2-hydroxy-[3,5-^3H]-4-(1,1-dimethylheptyl)-phenyl]-trans-4-(3-hydroxypropyl)cyclohexanol, manufactured by PerkinElmer, final concentration of 0.5 nmol/L), was incubated at 25° C. for 1 hour in the assay buffer solution (50 mmol/L Tris-HCl buffer solution (pH 7.4), 1 mmol/L EDTA and 3 mmol/L MgCl2) containing 0.1% bovine serum albumin. Then, the mixture was filtered through a glass filter GF/C (manufactured by Whatman) pretreated with 1% polyethyleneimine. After the glass filter was washed with the assay buffer solution containing 0.2% bovine serum albumin, the radioactivity on the glass filter was measured using a liquid scintillation counter (TRI-CARB 2700TR, manufactured by Packard). The nonspecific binding amount was defined as a binding amount in the presence of 10 μmol/L […] ((R)-(+)-[2,3-dihydro-5-methyl-3-(4-morpholinylmethyl)-pyrrolo[1,2,3-de]-1,4-benzoxazin-6-yl]-1-naphthalenylmethanone, manufactured by Tocris). The specific binding amount was presented as the difference between the total binding amount and the nonspecific binding amount. The 50% inhibitory concentration (IC50 value) of the test compound in the specific binding was determined. The Ki value of the test compound was calculated from this IC50 value and the Kd value for [^3H]CP55940 binding.

T1 sequence (P34972 whole entry): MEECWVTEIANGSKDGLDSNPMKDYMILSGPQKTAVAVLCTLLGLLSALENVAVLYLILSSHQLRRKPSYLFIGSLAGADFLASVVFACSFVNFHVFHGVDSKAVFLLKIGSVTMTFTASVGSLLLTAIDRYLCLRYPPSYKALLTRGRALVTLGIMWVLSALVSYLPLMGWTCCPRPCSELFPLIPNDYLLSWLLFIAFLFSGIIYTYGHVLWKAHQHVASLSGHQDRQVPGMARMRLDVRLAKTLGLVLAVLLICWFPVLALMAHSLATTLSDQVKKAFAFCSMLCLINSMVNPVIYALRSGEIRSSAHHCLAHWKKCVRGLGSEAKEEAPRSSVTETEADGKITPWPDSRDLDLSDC

SMILES	50% pain threshold (Paw withdrawal threshold) [1]	EC50 (human CB2 receptor)	Emax (human CB2 receptor)	Ki (CB2 receptor)
CC(C)N(C)C(=O)c1ccn2c(CC3CCOCC3)c(C(C)(C)C)nc2c1 [Compound 17, 2-tert-Butyl-N-isopropyl-N-methyl-3-(tetrahydropyran-4-ylmethyl)-imidazo[1,2-a]pyridine-7-carboxamide]	significantly increased the pain threshold	< 1 µM	> 30%	< 1 µM
CCN(CC)C(=O)c1cc2nc(C(C)(C)C)c(CC3CCOCC3)n2cn1 [Compound 15, 2-tert-Butyl-N,N-diethyl-3-(tetrahydropyran-4-ylmethyl)-imidazo[1,2-c]pyrimidine-7-carboxamide]	significantly increased the pain threshold	< 1 µM	> 30%	< 1 µM
CCN(CC)C(=O)c1ccn2c(CC3CCCCO3)c(C(C)(C)C)nc2c1 (centres unmarked) [Compound 27, 2-tert-Butyl-N,N-diethyl-3-(tetrahydropyran-2-ylmethyl)-imidazo[1,2-a]pyridine-7-carboxamide]	–	–	–	< 1 µM
CCN(CC)C(=O)c1cc2nc(C(C)(C)C)c(CC3CCCCC3)n2cn1 [Compound 14, 2-tert-Butyl-3-cyclohexylmethyl-N,N-diethyl-imidazo[1,2-c]-pyrimidine-7-carboxamide]	–	< 1 µM	> 30%	< 1 µM
CCN(CC)C(=O)c1ccn2c(CC3CCCCC3)c(C(C)(C)C)nc2c1 [Compound 1, 2-tert-Butyl-3-cyclohexylmethyl-N,N-diethylimidazo[1,2-a]-pyridine-7-carboxamide]	–	< 1 µM	> 30%	< 1 µM
CC(C)CN(C)C(=O)c1ccn2c(CC3CCOCC3)c(C(C)(C)C)nc2c1 [Compound 18, 2-tert-Butyl-N-isobutyl-N-methyl-3-(tetrahydropyran-4-ylmethyl)imidazo[1,2-a]pyridine-7-carboxamide]	significantly increased the pain threshold	< 1 µM	> 30%	< 1 µM
CCN(CC)C(=O)c1ccn2c(CC3CCOCC3)c(C(C)(C)C)nc2c1 [Compound 2, 2-tert-Butyl-N,N-diethyl-3-(tetrahydropyran-4-ylmethyl)-imidazo[1,2-a]pyridine-7-carboxamide]	significantly increased the pain threshold	< 1 µM	> 30%	< 1 µM
CCN(CC)C(=S)c1cc2nc(C(C)(C)C)c(CC3CCOCC3)n2cn1 [Compound 16, 2-tert-Butyl-N,N-diethyl-3-(tetrahydropyran-4-ylmethyl)-imidazo[1,2-c]pyrimidine-7-carbothioamide]	–	< 1 µM	> 30%	< 1 µM
CCN(CC)C(=S)c1ccn2c(CC3CCOCC3)c(C(C)(C)C)nc2c1 [Compound 8, 2-tert-Butyl-N,N-diethyl-3-(tetrahydropyran-4-ylmethyl)-imidazo[1,2-a]pyridine-7-carbothioamide]	–	< 1 µM	> 30%	< 1 µM
